Where two headings read alike, the source gives them in different places.
Tests used:
[1] = Biological value of the pure oxytocin product by the content determination method of the European Pharmacopoeia; settings: pure oxytocin from the liquid-phase synthesis; European Pharmacopoeia (version 8.0) content determination method, European Pharmacopoeia standards as standard materials; water and acetic acid removed
From the text: In order to solve the problems existing in the present oxytocin synthesis technology, the invention provides a liquid-phase synthesis technique of oxytocin characterized by high productivity, low cost, safe environment, mild reaction conditions, high level of purity and biological value and great possibility for industrial production. The pure product of oxytocin provided by the invention has a content of 98.1% and a biological value of 588 IU/mg measured by the content determination method according to the European Pharmacopoeia (version 8.0).
Liquid contained oxytocin with purity above 99% is collected, concentrated at 25° C., desalted by PS polymer, concentrated, and freeze-dried to obtain the pure product of oxytocin (the HPLC image is shown in the attached drawings). The pure product of oxytocin provided by the invention has a content of 98.1% and a biological value of 588 IU/mg measured by the content determination method according to the European Pharmacopoeia, with the European Pharmacopoeia standards used as the standard materials. […]

[2] = Photaki synthesis: 1,2-diiodoethane disulfide formation, HBr/AcOH deprotection, purified product; cited from earlier work

In the case of `CC[C@H](C)[C@@H]1NC(=O)[C@H](Cc2ccc(O)cc2)NC(=O)[C@@H](N)CSSC[C@@H](C(=O)N2CCC[C@H]2C(=O)N[C@@H](CC(C)C)C(=O)NCC(N)=O)NC(=O)[C@H](CC(N)=O)NC(=O)[C@H](CCC(N)=O)NC1=O` [oxytocin, Oxytocin], the biological value [1] is given as 588 IU/mg and the biological value [2] is given as 380 IU/mg.

From US20200002382A1, “Method for manufacturing oxytocin by liquid-phase polypeptide synthesis” (LANZHOU KAIBO PHARMACEUTICAL CO., LTD., priority 2017, published 2020)
